From the supplement of paper PMC12463676, “Small-molecule dissolution of stress granules by redox modulation benefits ALS models” (Nature Chemical Biology, 2025)

What was measured:
[1] = compound: O=[As]([O-])(O)O.[K+] [potassium arsenate]; assay: thermal stability z-score vs DMSO; higher = more thermally stabilized by treatment; details: HeLa; arsenate concentration 1 mM
Method: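 Cellular thermal proteome profiling in HeLa cells treated with 1 mM arsenate for 1 h (DMSO pretreatment), heated to ten temperatures (37-66.3 °C). Soluble protein was quantified by TMT mass spectrometry relative to DMSO controls; the thermal stability score was transformed to a z-score; mean of n = 3 experiments.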

[2] = compound: NC(=O)CCCCC1CCSS1 [lipoamide]; assay: as above; details: HeLa, lipoamide concentration 100 µM
Method: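 Cellular thermal proteome profiling in HeLa cells. Cells were treated with 100 µM lipoamide for 1 h, with or without 1 mM arsenate for a further 1 h, then heated to ten temperatures (37-66.3 °C), and soluble protein was quantified by TMT mass spectrometry relative to 0.1% DMSO controls. The thermal stability score (sum of log2 fold changes minus the abundance score) was transformed to a z-score; mean of n = 3 experiments.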

[3] = arsenate co-treatment: 1 mM arsenate 1 h
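Note: each temperature applied for 3 min, abundance score taken as mean log2 fold change at the two lowest temperatures, z-score obtained by mean subtraction and division by SD.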

Chain of UniProt P17812 (P17812 whole entry): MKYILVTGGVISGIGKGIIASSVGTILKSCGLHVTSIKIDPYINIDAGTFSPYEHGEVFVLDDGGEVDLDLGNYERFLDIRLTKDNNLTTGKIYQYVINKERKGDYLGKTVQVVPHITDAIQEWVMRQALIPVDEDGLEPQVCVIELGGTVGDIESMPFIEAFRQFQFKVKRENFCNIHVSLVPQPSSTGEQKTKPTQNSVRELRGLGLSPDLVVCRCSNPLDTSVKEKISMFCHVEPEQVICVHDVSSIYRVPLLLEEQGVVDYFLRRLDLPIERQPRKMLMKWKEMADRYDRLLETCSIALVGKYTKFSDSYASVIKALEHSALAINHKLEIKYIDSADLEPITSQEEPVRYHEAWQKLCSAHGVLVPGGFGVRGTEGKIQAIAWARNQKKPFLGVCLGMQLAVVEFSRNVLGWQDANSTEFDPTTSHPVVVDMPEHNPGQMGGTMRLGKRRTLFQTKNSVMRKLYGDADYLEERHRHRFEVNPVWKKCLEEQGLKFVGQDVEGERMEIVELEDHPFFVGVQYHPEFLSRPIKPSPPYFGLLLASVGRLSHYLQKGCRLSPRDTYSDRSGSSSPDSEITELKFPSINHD
Chain of UniProt P04080 (P04080 whole entry): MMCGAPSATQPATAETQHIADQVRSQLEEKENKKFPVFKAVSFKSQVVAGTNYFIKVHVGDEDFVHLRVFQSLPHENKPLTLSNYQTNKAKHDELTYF
Chain of UniProt Q13619 (Q13619 whole entry): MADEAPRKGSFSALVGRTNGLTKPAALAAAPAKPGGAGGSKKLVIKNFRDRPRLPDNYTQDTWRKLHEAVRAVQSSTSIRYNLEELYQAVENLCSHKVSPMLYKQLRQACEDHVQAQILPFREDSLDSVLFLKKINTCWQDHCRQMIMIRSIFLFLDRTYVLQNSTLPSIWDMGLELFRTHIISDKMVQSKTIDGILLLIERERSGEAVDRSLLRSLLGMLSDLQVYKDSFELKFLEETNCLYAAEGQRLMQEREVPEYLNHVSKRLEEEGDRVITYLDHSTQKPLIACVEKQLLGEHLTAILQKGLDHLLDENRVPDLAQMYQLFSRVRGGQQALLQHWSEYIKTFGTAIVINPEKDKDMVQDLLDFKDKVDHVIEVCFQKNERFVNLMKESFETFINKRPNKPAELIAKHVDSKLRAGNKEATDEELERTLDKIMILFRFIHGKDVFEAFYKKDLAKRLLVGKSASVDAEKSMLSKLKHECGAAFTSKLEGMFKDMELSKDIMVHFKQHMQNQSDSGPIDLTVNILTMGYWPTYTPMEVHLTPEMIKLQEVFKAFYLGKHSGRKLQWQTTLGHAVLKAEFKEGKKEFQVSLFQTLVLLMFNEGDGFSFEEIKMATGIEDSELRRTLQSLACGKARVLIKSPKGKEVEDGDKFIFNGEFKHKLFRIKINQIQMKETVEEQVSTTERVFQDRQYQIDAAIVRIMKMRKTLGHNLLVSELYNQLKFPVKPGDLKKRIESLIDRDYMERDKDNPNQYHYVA
Chain of UniProt Q2VPK5 (Q2VPK5 whole entry): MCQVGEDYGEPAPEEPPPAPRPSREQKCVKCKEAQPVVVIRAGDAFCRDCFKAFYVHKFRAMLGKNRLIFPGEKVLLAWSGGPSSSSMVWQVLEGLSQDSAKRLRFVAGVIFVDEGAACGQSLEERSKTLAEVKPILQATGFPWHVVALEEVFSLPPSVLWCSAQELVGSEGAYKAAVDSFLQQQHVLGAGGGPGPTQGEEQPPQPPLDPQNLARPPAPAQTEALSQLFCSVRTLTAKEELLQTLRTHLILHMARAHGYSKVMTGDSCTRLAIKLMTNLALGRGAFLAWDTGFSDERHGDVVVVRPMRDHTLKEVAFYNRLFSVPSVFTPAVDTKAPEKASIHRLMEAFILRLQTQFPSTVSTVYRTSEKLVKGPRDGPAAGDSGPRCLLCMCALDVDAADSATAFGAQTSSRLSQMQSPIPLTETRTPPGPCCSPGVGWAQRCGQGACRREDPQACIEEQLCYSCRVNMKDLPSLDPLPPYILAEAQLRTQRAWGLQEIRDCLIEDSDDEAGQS
Chain of UniProt Q7Z7A3 (Q7Z7A3 whole entry): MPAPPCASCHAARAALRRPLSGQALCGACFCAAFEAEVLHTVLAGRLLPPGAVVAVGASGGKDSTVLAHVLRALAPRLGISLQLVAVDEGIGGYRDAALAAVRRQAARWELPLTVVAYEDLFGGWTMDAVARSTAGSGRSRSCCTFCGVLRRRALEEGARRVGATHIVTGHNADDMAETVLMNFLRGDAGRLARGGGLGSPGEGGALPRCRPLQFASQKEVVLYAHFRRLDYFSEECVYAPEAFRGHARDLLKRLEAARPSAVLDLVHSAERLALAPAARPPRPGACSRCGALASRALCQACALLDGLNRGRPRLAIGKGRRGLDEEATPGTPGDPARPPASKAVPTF
Chain of UniProt O43310 (O43310 whole entry): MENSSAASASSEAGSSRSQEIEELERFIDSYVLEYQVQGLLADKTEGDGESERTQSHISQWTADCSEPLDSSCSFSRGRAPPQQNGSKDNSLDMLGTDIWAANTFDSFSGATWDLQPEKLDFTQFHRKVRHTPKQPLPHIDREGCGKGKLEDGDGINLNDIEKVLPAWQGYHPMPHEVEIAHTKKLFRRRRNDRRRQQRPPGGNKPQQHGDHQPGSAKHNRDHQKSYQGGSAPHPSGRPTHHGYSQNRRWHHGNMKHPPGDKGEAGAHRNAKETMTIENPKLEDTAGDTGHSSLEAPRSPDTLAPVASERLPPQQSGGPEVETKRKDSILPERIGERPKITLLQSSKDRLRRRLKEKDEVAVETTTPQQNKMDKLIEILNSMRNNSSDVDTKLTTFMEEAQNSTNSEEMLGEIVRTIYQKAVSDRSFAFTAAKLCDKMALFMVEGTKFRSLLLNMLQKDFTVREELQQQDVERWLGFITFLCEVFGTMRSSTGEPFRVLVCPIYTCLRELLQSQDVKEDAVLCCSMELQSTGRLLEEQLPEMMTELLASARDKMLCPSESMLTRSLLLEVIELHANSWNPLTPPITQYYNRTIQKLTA
Chain of UniProt P49711 (P49711 whole entry): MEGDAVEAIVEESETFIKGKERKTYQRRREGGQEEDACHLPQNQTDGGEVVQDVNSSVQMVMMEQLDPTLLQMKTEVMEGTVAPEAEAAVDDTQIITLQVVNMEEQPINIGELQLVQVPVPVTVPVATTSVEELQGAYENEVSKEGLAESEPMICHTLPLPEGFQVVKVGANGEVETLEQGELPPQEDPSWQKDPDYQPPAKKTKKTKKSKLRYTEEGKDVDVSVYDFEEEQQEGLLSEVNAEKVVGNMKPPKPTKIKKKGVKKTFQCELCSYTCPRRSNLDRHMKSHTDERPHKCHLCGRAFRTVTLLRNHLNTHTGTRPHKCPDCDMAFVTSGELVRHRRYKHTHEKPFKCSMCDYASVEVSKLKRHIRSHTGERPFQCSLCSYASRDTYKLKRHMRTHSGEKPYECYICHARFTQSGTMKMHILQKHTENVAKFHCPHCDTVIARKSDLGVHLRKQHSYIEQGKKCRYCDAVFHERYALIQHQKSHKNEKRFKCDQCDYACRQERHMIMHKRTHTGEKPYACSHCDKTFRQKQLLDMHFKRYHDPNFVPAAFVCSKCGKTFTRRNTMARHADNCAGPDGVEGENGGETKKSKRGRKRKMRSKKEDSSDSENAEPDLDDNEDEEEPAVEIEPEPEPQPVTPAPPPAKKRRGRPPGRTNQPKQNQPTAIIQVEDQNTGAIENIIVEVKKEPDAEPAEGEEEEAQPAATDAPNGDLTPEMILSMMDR
Chain of UniProt Q13617 (Q13617 whole entry): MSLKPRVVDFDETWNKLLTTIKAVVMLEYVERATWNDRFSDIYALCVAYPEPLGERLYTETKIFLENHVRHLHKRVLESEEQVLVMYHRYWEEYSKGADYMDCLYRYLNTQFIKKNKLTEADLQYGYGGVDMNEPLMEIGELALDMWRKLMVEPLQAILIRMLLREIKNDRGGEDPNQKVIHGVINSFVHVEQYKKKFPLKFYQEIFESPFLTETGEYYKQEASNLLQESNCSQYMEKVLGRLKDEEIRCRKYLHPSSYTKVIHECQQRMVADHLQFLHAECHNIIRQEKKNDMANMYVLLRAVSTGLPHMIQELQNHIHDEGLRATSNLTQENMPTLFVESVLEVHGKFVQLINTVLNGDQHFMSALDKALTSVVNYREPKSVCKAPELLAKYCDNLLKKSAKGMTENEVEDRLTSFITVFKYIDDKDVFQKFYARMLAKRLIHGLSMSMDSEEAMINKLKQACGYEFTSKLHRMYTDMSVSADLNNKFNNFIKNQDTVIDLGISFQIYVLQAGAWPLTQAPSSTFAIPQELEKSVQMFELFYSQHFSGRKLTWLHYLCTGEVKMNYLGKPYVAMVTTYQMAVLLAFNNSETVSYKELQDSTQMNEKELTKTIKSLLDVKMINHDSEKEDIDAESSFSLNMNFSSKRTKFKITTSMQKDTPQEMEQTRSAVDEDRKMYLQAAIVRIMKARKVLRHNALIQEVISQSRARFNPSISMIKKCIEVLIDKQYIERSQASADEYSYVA
Chain of UniProt P07339 (P07339 whole entry, looked up): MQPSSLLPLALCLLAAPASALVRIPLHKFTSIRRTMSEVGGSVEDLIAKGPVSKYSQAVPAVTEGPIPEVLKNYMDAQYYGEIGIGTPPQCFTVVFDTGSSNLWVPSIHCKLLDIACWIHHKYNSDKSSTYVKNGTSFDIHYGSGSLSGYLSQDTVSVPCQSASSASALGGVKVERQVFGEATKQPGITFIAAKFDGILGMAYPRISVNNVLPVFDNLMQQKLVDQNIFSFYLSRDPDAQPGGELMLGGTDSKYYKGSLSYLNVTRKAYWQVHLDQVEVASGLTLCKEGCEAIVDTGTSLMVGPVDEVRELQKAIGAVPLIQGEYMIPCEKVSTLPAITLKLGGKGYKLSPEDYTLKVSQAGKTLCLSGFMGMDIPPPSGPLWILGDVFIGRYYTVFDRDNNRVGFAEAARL
Chain of UniProt P01034 (P01034 whole entry): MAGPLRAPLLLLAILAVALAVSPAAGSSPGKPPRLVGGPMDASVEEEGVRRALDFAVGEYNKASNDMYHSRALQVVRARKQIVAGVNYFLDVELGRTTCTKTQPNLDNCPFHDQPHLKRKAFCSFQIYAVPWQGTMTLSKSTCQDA

Row | Target | thermal stability z-score [1] | thermal stability z-score [2, 3] | thermal stability z-score ([2]; arsenate co-treatment: none)
1 | CRYBG3 (UniProt Q68DQ2) | -0.00726 | -0.828 | 0.00468
2 | CRYZ (UniProt Q08257) | 0.207 | 0.232 | 0.229
3 | CRYZL1 (UniProt O95825) | -0.358 | -0.0756 | -0.692
4 | CS (UniProt O75390) | 0.561 | -0.341 | 0.0055
5 | CSDE1 (UniProt O75534) | -0.273 | -0.138 | 0.281
6 | CSE1L (UniProt P55060) | 0.016 | 0.582 | 0.825
7 | CSF2RA (UniProt P15509) | 0.19 | 0.513 | 0.365
8 | CSK (UniProt P41240) | -0.218 | 0.116 | 0.433
9 | CSNK1A1 (UniProt P48729) | 1.08 | -0.534 | -0.478
10 | CSNK1E (UniProt P49674) | -0.184 | 0.18 | -0.0385
11 | CSNK2A1 (UniProt P68400) | 0.489 | 0.541 | 0.00111
12 | CSNK2A2 (UniProt P19784) | 0.00534 | 0.339 | 0.183
13 | CSNK2B (UniProt P67870) | 0.656 | 1.66 | 1.48
14 | CSPG4 (UniProt Q6UVK1) | -0.945 | -0.203 | -0.907
15 | CSRP1 (UniProt P21291) | 0.517 | 0.858 | 0.655
16 | CSRP2 (UniProt Q16527) | -0.0511 | 0.688 | 0.0492
17 | CST3 (UniProt P01034) | 0.472 | -0.744 | -0.0182
18 | CSTB (UniProt P04080) | 0.59 | 0.399 | 0.0839
19 | CSTF1 (UniProt Q05048) | -1.45 | -0.533 | 0.0516
20 | CSTF2 (UniProt P33240) | 0.756 | 1.09 | 0.979
21 | CSTF2T (UniProt Q9H0L4) | 0.141 | 0.0672 | -0.0883
22 | CSTF3 (UniProt Q12996) | -0.661 | 0.159 | 0.0381
23 | CTAG2 (UniProt O75638) | 0.617 | -0.394 | 0.0387
24 | CTBP1 (UniProt Q13363) | 0.629 | 1.13 | -0.19
25 | CTBP2 (UniProt P56545) | 0.448 | 0.985 | -0.0596
26 | CTCF (UniProt P49711) | -1.14 | 0.761 | -0.0166
27 | CTDP1 (UniProt Q9Y5B0) | -0.903 | -0.373 | -0.652
28 | CTH (UniProt P32929) | 0.596 | 0.473 | 0.559

Row | Target | thermal stability z-score [1] | thermal stability z-score [2, 3] | thermal stability z-score ([2]; arsenate co-treatment: none)
29 | CTIF (UniProt O43310) | 0.233 | -0.164 | 0.404
30 | CTNNA1 (UniProt P35221) | -0.4 | 0.319 | 0.2
31 | CTNNAL1 (UniProt Q9UBT7) | 0.675 | 0.0967 | 0.168
32 | CTNNB1 (UniProt P35222) | 0.308 | 0.545 | 0.798
33 | CTNNBL1 (UniProt Q8WYA6) | -0.00699 | -0.0207 | 0.00313
34 | CTNND1 (UniProt O60716) | -0.105 | 0.292 | 0.231
35 | CTPS1 (UniProt P17812) | -0.228 | -0.159 | -0.286
36 | CTPS2 (UniProt Q9NRF8) | 0.109 | 0.218 | -0.0335
37 | CTR9 (UniProt Q6PD62) | 0.243 | 0.156 | 0.203
38 | CTSA (UniProt P10619) | -0.0364 | -0.264 | -0.283
39 | CTSB (UniProt P07858) | -0.676 | -0.289 | -0.315
40 | CTSC (UniProt P53634) | -0.148 | -0.492 | -0.279
41 | CTSD (UniProt P07339) | -0.598 | 0.0179 | -0.0567
42 | CTSL (UniProt P07711) | 0.977 | -0.924 | -0.44
43 | CTSZ (UniProt Q9UBR2) | 0.529 | -1.02 | -0.748
44 | CTTN (UniProt Q14247) | 0.2 | 0.536 | 0.451
45 | CTTNBP2NL (UniProt Q9P2B4) | 1.26 | 1.4 | 1.54
46 | CTU1 (UniProt Q7Z7A3) | -0.16 | -0.119 | -0.0524
47 | CTU2 (UniProt Q2VPK5) | -0.165 | 0.157 | 0.225
48 | CUEDC2 (UniProt Q9H467) | 0.0094 | -0.0601 | -0.131
49 | CUL1 (UniProt Q13616) | -0.108 | 0.708 | 0.275
50 | CUL2 (UniProt Q13617) | -0.256 | 0.23 | 0.0777
51 | CUL3 (UniProt Q13618) | 0.158 | -0.1 | -0.422
52 | CUL4A (UniProt Q13619) | -0.0896 | 0.0347 | -0.214
53 | CUL4B (UniProt Q13620) | -0.051 | 0.0797 | -0.0817
54 | CUL5 (UniProt Q93034) | 0.131 | 0.631 | 0.636
55 | CUL7 (UniProt Q14999) | -0.113 | 0.0636 | 0.0136
